Results reported in US7947733B2, “Phosphorylated pyrone analogs and methods” (Limerick BioPharma, priority 2007, dated 2011).
Several values for one entry are separate records, joined by “and”; a condition that tells them apart may be missing. Equal values may be shown once.

What was measured:
[1] = system: ATPase, Na+/K+, Heart, Pig; assay: Secondary toxicity screen (MDS Pharma Services), enzyme assay; type: biochemical; conditions: 10 μM
Experimental: (§1) A secondary pharmacological screening of molecules of interest at a fixed concentration is often practiced in the pharmaceutical industry in order to evaluate the effect of the compound on secondary targets that could result in untoward toxicity in-vivo. These secondary screens are well known in the art and can be carried out by labs which specialize in these tests such as MDS-Panlabs and CEREP. A secondary toxicity screen is performed with Quercetin-3′-O-phosphate at a concentration of 10 μM against 122 targets in enzyme, radioligand binding, and cellular assays by MDS Pharma Services by methods well known in the art. Inhibition is found in only the following targets (percent inhibition at 10 μM in parentheses): ATPase, Na+/K+, Heart, Pig (65%), Nitric Oxide Synthase, Endothelial (eNOS) (72%), Protein Tyrosine Kinase, FGFR2 (94%), Protein Tyrosine Kinase, FGFR1(96%), Protein Tyrosine Kinase, Insulin Receptor (91%), Protein Tyrosine Kinase, (82%), Protein Tyrosine Kinase, ZA70 (ZAP-70) (74%), UDP Glucuronosyltransferase, UGT1A1 (52%), Adenosine A1 (50%), Adrenergic α2A (57%), Dopamine D47 (51%), Peripheral Benzodiazepine Receptor (PBR) (53%), Transporter, Monoamine rabbit (68%), Serotonin (5-Hydroxytryptamine) 5-HT1A (62%).

[2] = Secondary toxicity screen, overall finding; conditions: 10 μM against 122 targets
Experimental: as §1

[3] = system: Peripheral Benzodiazepine Receptor (PBR); assay: Secondary toxicity screen (MDS Pharma Services), radioligand binding; conditions: 10 μM
Experimental: as §1

Dopamine D47 = assay: as above; conditions: 10 μM
Experimental: as §1

[4] = system: Transporter, Monoamine rabbit; assay: as above; conditions: 10 μM
Experimental: as §1

kidney of rats = assay: Renal pathology in rats co-administered with quercetin-3′-O-phosphate and tacrolimus; type: in vivo, rat
Experimental: Tissue is removed from the kidney of rats treated with tacrolimus (Prograf®) at 0.5 mg/kg and inert vehicle, and from rats treated with tacrolimus (Prograf®) at 0.5 mg/kg and quercetin-3′-O-phosphate (Q-Phosphate) at 11 mg/kg, 28 mg/kg, and at 114 mg/kg for 25 days. […] The tissue from rats treated with Q-Phosphate and tacrolimus show no vacuoles.

[5] = Solubility of quercetin-3′-O-phosphate in water; type: physicochemical; conditions: about pH 8 (about 4 g in 50 mL)
Experimental: The resultant solid from concentration of the decantate is added acetonitrile (500 mL) followed by water (50 mL) then 1N hydrochloric acid (approx. 20 mL) until a pH of about 5 is achieved. The solution is concentrated to a volume of about 120 mL. The residue is purified with a 600 g, C-18 reverse phase column with 60 mL injections in a gradient. The gradient is 100% water (1 L), 9:1 water:MeOH (1 L), 8:2 water:MeOH (1 L), 7:3 water:MeOH (1 L), 1:1 water:MeOH. The desired product begins to elute after about 500 mL of 1:1 water:MeOH. The fractions are combined and concentrated. The residue is dissolved in water (40 mL) and solid potassium carbonate (approx. 3 g) is added until pH=8. The pH is adjusted to about 2 with 50% sulfuric acid resulting in the formation of a precipitate. The solid is collected, which contained approximately 10% TEA. The solid is suspended in water (50 mL), and the pH is adjusted to about 8 with solid potassium carbonate to produce a yellow solution. The resultant yellow solution is treated dropwise with 50% sulfuric acid until a pH of about 2 is reached, resulting in the precipitation of a solid. The solid is collected and slurried in water (75 mL). The solid is collected and dried giving 4 g, representing 12% of quercetin-3′-O-phosphate. […]

rats = assay: Blood glucose levels in rats co-administered with quercetin-3′-O-phosphate and tacrolimus; type: in vivo, rat; conditions: for Blood glucose, Mean change from Prograf ® control / Blood glucose, Mean change from Day 1: Q-Phosphate 114 mg/kg + Prograf 0.5 mg/kg i.p.; for Blood glucose, Mean: Q-Phosphate 114 mg/kg i.p. Day 11 to Day 25 + Prograf 0.5 mg/kg i.p., 5 rats; for Blood glucose, individual rats: Q-Phosphate 114 mg/kg i.p. once daily Day 11 to Day 25 + Prograf 0.5 mg/kg i.p. Day 1 to Day 25
Experimental: One set of 5 rats is treated from day 1 to day 25 with inert vehicle 2 intraperitoneally and treated from day 11 to day 25 with inert vehicle 1 intraperitoneally. […] A third set 5 of rats is treated from day 1 to day 25 with tacrolimus (Prograf®) intraperitoneally at 0.5 mg/kg, and treated from day 11 to day 25 intraperitoneally with quercetin-3′-O-phosphate (Q-Phosphate) at 114 mg/kg. The blood glucose level in the rats is measured on days 1, 10, 15, 20, and 25.

[6] = Stability of Quercetin-3′-O-phosphate in water; type: physicochemical; conditions: water at pH 8, 24 hours, ambient temperature
Experimental: Quercetin-3′-O-phosphate is dissolved in water at about pH 8.

solubility [5]: ≥ 80 mg/mL
degradation seen by NMR [6]: no degradation
Structure (SMILES): O=c1c(O)c(-c2ccc(O)c(OP(=O)(O)O)c2)oc2cc(O)cc(O)c12 [Quercetin-3′-O-phosphate]
percent inhibition [1]: 65%
toxicity properties (findings of the toxicology screen) [2]: low toxicity properties
percent inhibition [3]: 53%
percent inhibition (Dopamine D47): 51%
percent inhibition [4]: 68%
protective effect with respect to the kidneys (kidney of rats; co-administered with tacrolimus): significant protective effect
vacuolation of kidney tissue (kidney of rats; tacrolimus 0.5 mg/kg and Q-Phosphate at 11, 28 and 114 mg/kg, 25 days): no vacuoles
Blood glucose, Mean change from Prograf ® control (rats; Day 1): +0.02 g/l
Blood glucose, Mean (rats; Day 1): 1.29 g/L
Blood glucose, individual rats (rats; Day 1): 1.18 g/L and 1.19 g/L and 1.41 g/L and 1.36 g/L and 1.30 g/L
Blood glucose, Mean change from Day 1 (rats; Day 10): +0.65 g/l
Blood glucose, Mean change from Prograf ® control (rats; Day 10): +0.45 g/l
Blood glucose, Mean (rats; Day 10): 1.94 g/L
Blood glucose, individual rats (rats; Day 10): 1.50 g/L and 2.41 g/L and 2.19 g/L and 1.51 g/L and 2.10 g/L
Blood glucose, Mean change from Day 1 (rats; Day 15): +0.99 g/l
Blood glucose, Mean change from Prograf ® control (rats; Day 15): -0.26 g/L
Blood glucose, Mean (rats; Day 15): 2.28 g/L
Blood glucose, individual rats (rats; Day 15): 2.07 g/L and 2.90 g/L and 3.16 g/L and 1.83 g/L and 1.42 g/L
Blood glucose, Mean change from Day 1 (rats; Day 20): +1.55 g/l
Blood glucose, Mean change from Prograf ® control (rats; Day 20): -0.09 g/L
Blood glucose, Mean (rats; Day 20): 2.84 g/L
Blood glucose, individual rats (rats; Day 20): 1.99 g/L and 3.28 g/L and 3.67 g/L and 3.58 g/L and 1.67 g/L
Blood glucose, Mean change from Day 1 (rats; Day 25): +0.87 g/l
Blood glucose, Mean change from Prograf ® control (rats; Day 25): -0.39 g/L
Blood glucose, Mean (rats; Day 25): 2.16 g/L
Blood glucose, individual rats (rats; Day 25): 2.34 g/L and 2.54 g/L and 2.04 g/L and 2.67 g/L and 1.23 g/L
effect on tacrolimus induced hyperglycemia (rats; rats, Q-Phosphate 114 mg/kg i.p. with tacrolimus 0.5 mg/kg): can attenuate tacrolimus induced hyperglycemia
